In brackets after ≈: the same amount, converted by molar mass.
Test system: Agrobacterium tumefaciens
Assay: Antibacterial activity against Agrobacterium tumefaciens str. B6 assessed as growth inhibition after 48 hr by INT staining
Type: functional
Conditions: str. B6, 48 h

Compound: CC(=O)c1c(O)cc(O)c(O)c1O[C@@H]1O[C@H](CO)[C@@H](O)[C@H](O)[C@H]1O [LALIOSIDE]
- MIC: 30 µg/mL (≈ 86.6 µM)

From ChEMBL document CHEMBL3045746, “Efficacy of Lawsonia inermis leaves extract and its phenolic compounds against olive knot and crown gall diseases” (2013)
